Reference: US20090117563A1, “Identification of TRPML3 (MCOLN3) as a Salty Taste Receptor and Use in Assays for Identifying Taste (Salty) Modulators and/or Therapeutics that Modulate Sodium Transport, Absorption or Excretion and/or Aldosterone and/or Vasopressin Production or Release” (priority 2007, published 2009)

Molecular target: T1, human TRPML3 (Homo sapiens, UniProt Q8TDD5)
T1 construct: expressed in transfected cells
T1 sequence (Q8TDD5 1-553): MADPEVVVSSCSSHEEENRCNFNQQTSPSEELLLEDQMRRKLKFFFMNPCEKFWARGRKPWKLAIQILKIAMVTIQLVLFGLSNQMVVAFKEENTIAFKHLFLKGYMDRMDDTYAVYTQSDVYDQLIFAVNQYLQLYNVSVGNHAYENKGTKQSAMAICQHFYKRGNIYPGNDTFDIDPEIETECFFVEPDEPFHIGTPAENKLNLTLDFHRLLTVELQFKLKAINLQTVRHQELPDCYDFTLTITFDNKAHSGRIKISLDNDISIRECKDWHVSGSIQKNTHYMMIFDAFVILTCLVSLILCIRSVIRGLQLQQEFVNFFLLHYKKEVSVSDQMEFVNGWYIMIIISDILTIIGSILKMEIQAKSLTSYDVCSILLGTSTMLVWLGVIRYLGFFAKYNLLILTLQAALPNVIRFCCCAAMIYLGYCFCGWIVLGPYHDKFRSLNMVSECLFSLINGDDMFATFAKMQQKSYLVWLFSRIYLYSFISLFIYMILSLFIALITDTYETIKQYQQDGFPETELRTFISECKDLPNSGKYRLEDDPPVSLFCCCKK
Assay: Two-electrode voltage clamp in oocytes injected with human TRPML3 cRNA
Type: cell-based
Details: 300 uM gadolinium (GdCl3) solution; −100 to +60 mV
Protocol: Twenty-four to forty-eight hours following microinjection of 10-25 ng human TRPML3 cRNA, TRPML3 function is measured in oocytes using the two-electrode voltage clamp technique on an OpusXpress 6000A parallel oocyte voltage clamp system (MDS Analytical Technologies). The two-electrode voltage clamp technique is an electrophysiology method that measures the macroscopic electrical current flowing across the entire oocyte membrane though protein channels (Stuhmer, Methods in Enzymology (1992) 207: 319-339). Oocytes are impaled with a voltage-sensing electrode and a current-sensing electrode; the voltage, or potential difference across the oocyte membrane, is clamped to a particular value using the voltage-sensing electrode and the current, or the flow of ions across the oocyte membrane, required to maintain that voltage is measured using the current-sensing electrode. […]
If the compound functions as a TRPML3 enhancer, the current passing through TRPML3 channels in the oocyte membrane increases (becomes more negative). […] To quantitate the effect of a compound on TRPML3 function, the following formula is used: […]
This value corresponds to the magnitude of the current change due to compound divided by the magnitude of the current change due to NMDG multiplied by −100%. […] All four oocytes expressed TRPML3, as evidenced by the inhibitory effect of NMDG on measured oocyte currents. […]

[Cl][Gd]([Cl])[Cl] [gadolinium, gadolinium chloride]
effect on TRPML3 current and slope of the I/V curve: blocks TRPML3 current and decreases the slope of the I/V curve
